Where a name gives a salt, the structure may show the parent alone.

In the assay the test system is IL-1β Production of THP-1. Nature of the assay: Test on IL-1β production of THP-1 (LPS and ATP stimulation, ELISA). It is filed as cell-based. The note with it: Homo sapiens; PMA-differentiated THP-1 cells, LPS 50 ng/mL and ATP 5 mM, 2 hours. On the procedure: 50 ng/mL of PMA (phorbol myristate acetate, SIGMA, P1585) was added to THP-1 cells, and the cells were cultured at 37° C. for 2 days. […] LPS (Lipopolysaccharide, SIMGA, L2880) and ATP (Adenosine triphosphate, SIGMA, A2383) were added to final concentrations of 50 ng/mL and 5 mM, respectively, and the cells were cultured at 37° C. for 2 hours. The supernatant was collected, and the concentration of IL-1β was measured by an ELISA method (DuoSet ELISA human IL-1β, R&D Systems, DY201). […] The IC50 value was calculated by sigmoid […] model non-linear regression analysis.
For `OCCCNc1cc(-c2ccco2)c(-c2ccc(C(F)(F)F)cc2)nn1` [Example 51], the IC50 (as a rule, the concentration that gives 50% inhibition) worked out at 990 nM. On to `Cc1cc(NC[C@@H](C)O)nnc1-c1ccc(C(F)(F)F)cc1O` [Example 7, 2-(6-{[(R2R)-2-hydroxypropyl]amino}-4-methylpyridazin-3-yl)-5-(trifluoromethyl)phenol], for which inhibition was half-maximal at 17 nM (IC50).

For the molecule `C[C@@H](O)CNc1cc(-n2ccnc2)c(-c2ccc(C(F)(F)F)cc2C(F)(F)F)nn1` [Example 55], the IC50 was 5100 nM. For `Cc1c(NCC(C)CO)nnc(-c2ccc(C(F)(F)F)cc2O)c1C` (stereo not drawn) [Example 71] the value was 38 nM; for `Cc1c(NC[C@@H](C)O)nnc(-c2ccc(Cl)cc2O)c1C` [Example 65], 49 nM; for `O=C(NCCCCNc1ccc(-c2ccc(C(F)(F)F)cc2C(F)(F)F)nn1)C(F)F` [Example 46, N-[4({6-[2,4-bis(trifluoromethyl)phenyl]pyridazin-3-yl}amino)butyl]-2,2-difluoroacetoamide], 120 nM. `Cc1cc(C)n(-c2cc(-c3ccc(C(F)(F)F)cc3C(F)(F)F)nnc2NC[C@@H](C)O)n1` [Example 15]: half-maximal inhibition (IC50) required 97 nM. This IC50 and that of the molecule before are within 1.5-fold of each other.

`CC(C)c1cc(NC[C@@H](C)O)nnc1-c1ccc(C(F)(F)F)cc1O` [Example 26] returned a half-inhibitory concentration (IC50) of 54 nM. Against the preceding molecule, the IC50 is about 1.8-fold lower.

Consider `Cc1cc(-c2ccc(C(F)(F)F)cc2)nnc1NCCCO` [Example 53], for which inhibition was half-maximal at 2700 nM (IC50). Take `CC(=O)NCCCCNc1ccc(-c2ccc(C(F)(F)F)cc2C(F)(F)F)nn1` [Example 11]: the IC50 was determined as 150 nM. The molecule `Cc1cc(NC[C@@H](C)O)nnc1-c1c(O)cccc1F` [Example 36] registered a half-inhibitory concentration (IC50) of 620 nM.

Turning to `Cc1cc(NC[C@@H](C)O)nnc1-c1cccc(Cl)c1O` [Example 33], it took 170 nM to reach half-maximal inhibition (IC50).

Molecule `Cc1c(NC[C@@H](C)CO)nnc(-c2ccc(C(F)(F)F)cc2O)c1C` (single isomer, unassigned) [Example 76, 2-(6-{[(R2R)-3-hydroxy-2-methylpropyl]amino}-4,5-dimethylpyridazine-3-yl)-5-(trifluoromethyl)phenol] registered an IC50 of 26 nM. Turning to `Cc1cc(NC[C@@H](C)O)nnc1-c1cccc(F)c1O` [Example 30], the half-maximal inhibitory concentration (IC50) was determined as 510 nM. In the case of `COc1ccc(-c2cc(C)c(NC[C@@H](C)O)nn2)c(C(F)(F)F)c1` [Example 21], inhibition was half-maximal at 160 nM (IC50). `C[C@@H](O)CNc1nnc(-c2ccc(C(F)(F)F)cc2C(F)(F)F)cc1C(=O)N(C)C` [Example 14] gave a concentration for half-maximal inhibition (IC50) of 330 nM. `C[C@@H](O)CNc1ccc(-c2ccc(C(F)(F)F)cc2O)nn1` [Example 18] showed a half-inhibitory concentration (IC50) of 260 nM. The IC50 values of the last two molecules are within 1.5-fold of each other.

`C[C@@H]1CN(C(=O)c2cc(-c3ccc(C(F)(F)F)cc3C(F)(F)F)nnc2NC[C@@H](C)O)CCO1` [Example 58]: the IC50 amounted to 950 nM.

Consider `C[C@@H](O)CNc1nnc(-c2ccc(C(F)(F)F)cc2C(F)(F)F)cc1C(=O)N1CCOCC1` [Example 40, (6-[2,4-bis(trifluoromethyl)phenyl]-3-{[(2R)-2-hydroxypropyl]amino}pyridazin-4-yl)(morpholin-4-yl)methanone], for which the IC50 came to 240 nM. For `CCc1cc(NC[C@@H](C)O)nnc1-c1ccc(C(F)(F)F)cc1O` [Example 64] the value was 33 nM; for `O=C(NCCCCNc1ccc(-c2ccc(C(F)(F)F)cc2C(F)(F)F)nn1)C1CC1` [Example 48], 510 nM. In the case of `Cc1c(NC[C@H](C)CO)nnc(-c2ccc(C(F)(F)F)cc2O)c1C` [Example 75], inhibition was half-maximal at 18 nM (IC50). This IC50 is about 28-fold lower than that of the molecule before.

`Cc1cc(NC[C@@H](C)O)nnc1-c1ccc(F)cc1O` [Example 27] gave a concentration for half-maximal inhibition (IC50) of 190 nM. `CC(=O)N[C@H](C)CNc1ccc(-c2ccc(C(F)(F)F)cc2C(F)(F)F)nn1` [Example 45, N—[(R2R)-1-({6-[2,4-bis(trifluoromethyl)phenyl]pyridazin-3-yl}amino)propan-2-yl]acetoamide] registered an IC50 of 530 nM. Compared with the last molecule, the IC50 is about 2.8-fold higher. For `C[C@@H](O)CNc1nnc(-c2ccc(C(F)(F)F)cc2C(F)(F)F)cc1C(=O)N1CCO[C@@H](C)C1` [Example 43] the value was 860 nM. The molecule `Cc1cc(NC[C@@H](C)O)nnc1-c1ccc(C(F)(F)F)cc1C(F)(F)F` [Example 5, (2R)-1-({6-[2,4-bis(trifluoromethyl)phenyl]-5-methylpyridazin-3-yl}amino)propan-2-ol] came in with a 50% inhibitory concentration (IC50) of 200 nM. Turning to `CC(=O)NCCCCNc1nnc(-c2ccc(C(F)(F)F)cc2O)c(C)c1C` [Example 74], the IC50 is 35 nM. `CC(O)CNc1ccc(-c2ccc(C(F)(F)F)cc2C(F)(F)F)nn1` (stereo not drawn) [Example 10]: half-maximal inhibition (IC50) was put at 200 nM. Take `CCc1c(NC[C@@H](C)O)nnc(-c2ccc(C(F)(F)F)cc2O)c1CC` [Example 67]: the half-maximal inhibitory concentration (IC50) stood at 170 nM.

Molecule `C[C@@H](O)CNc1cc(C2CC2)c(-c2ccc(C(F)(F)F)cc2O)nn1` [Example 32] had a half-inhibitory concentration (IC50) of 11 nM. In turn, `C[C@@H](O)CNc1nnc(-c2ccc(C(F)(F)F)cc2C(F)(F)F)cc1C(=O)N1CCOC[C@@H]1C` [Example 57] yielded an IC50 of 1600 nM.

`Cc1cc(N[C@@H]2CCCC[C@H]2O)nnc1-c1ccc(C(F)(F)F)cc1C(F)(F)F` [Example 16] registered an IC50 of 200 nM. `Cc1cc(NC[C@@H](C)O)nnc1-c1cc(F)ccc1O` [Example 62]: the IC50 worked out at 2100 nM. In the case of `C[C@@H](O)CNc1nnc(-c2ccc(C(F)(F)F)cc2O)cc1C#N` [Example 37] it was 33 nM; in that of `Cc1cc(-c2ccc(Cl)cc2C(F)(F)F)nnc1NC[C@@H](C)O` [Example 23], 120 nM; in that of `C[C@@H](O)CNc1cc(C2CC2)c(-c2ccc(Cl)cc2O)nn1` [Example 78], 43 nM. For `C[C@@H](O)CNc1nnc(-c2ccc(C(F)(F)F)cc2C(F)(F)F)cc1C(N)=O` [Example 41] the value was 200 nM; for `Cc1c(NCCCO)nnc(-c2ccc(C(F)(F)F)cc2O)c1C` [Example 70, 2-{6-[(3-hydroxypropyl)amino]-4,5-dimethylpyridazine-3-yl}-5-(trifluoromethyl)phenol], 36 nM; for `Cc1cc(NC[C@@H](C)O)nnc1-c1ccccc1O` [Example 25], 500 nM. For `Cc1cc(-c2ccc(C(F)(F)F)cc2C(F)(F)F)nnc1N[C@@H]1CCCC[C@H]1O` [Example 17] the value was 110 nM; for `OCCCNc1nnc(-c2ccc(C(F)(F)F)cc2)cc1-c1ccccc1` [Example 2], 1800 nM; for `COc1cccc(-c2nnc(NC[C@@H](C)O)cc2C)c1O` [Example 31], 270 nM. Turning to `CC(C)c1cc(NC[C@@H](C)O)nnc1-c1ccc(C(F)(F)F)cc1C(F)(F)F` [Example 61], the IC50 stood at 1500 nM. Regarding `Cc1c(NC[C@H](C)O)nnc(-c2ccc(C(F)(F)F)cc2O)c1C` [Example 73], the half-maximal inhibitory concentration (IC50) was determined as 43 nM. For the molecule `Cc1cc(NC[C@@H](C)O)nnc1-c1ccc(Cl)cc1O` [Example 66], the concentration for half-maximal inhibition (IC50) stood at 47 nM. In the case of `Cc1cc(NCCCO)nnc1-c1ccc(C(F)(F)F)cc1` [Example 52] it was 470 nM; in that of `C[C@@H](O)CNc1nnc(-c2ccc(C(F)(F)F)cc2C(F)(F)F)cc1OC(F)F` [Example 49, (2R)-1-({6-[2,4-bis(trifluoromethyl)phenyl]-4-(difluoromethoxy)pyridazin-3-yl}amino)propan-2-ol hydrochloride], 680 nM; in that of `C[C@@H](O)CNc1ccc(-c2ccc(C(F)(F)F)cc2C(F)(F)F)nn1` [Example 12], 150 nM.

Molecule `CCOC(=O)c1cc(-c2ccc(C(F)(F)F)cc2C(F)(F)F)nnc1NC[C@@H](C)O` [Example 3, ethyl 6-[2,4-bis(trifluoromethyl)phenyl]-3-{[(2R)-2-hydroxypropyl]amino}pyridazine-4-carboxylate] showed a concentration for half-maximal inhibition (IC50) of 120 nM. `Cc1c(NCC(C)CO)nnc(-c2ccc(Cl)cc2O)c1C` (stereo not drawn) [Example 77] showed an IC50 of 89 nM. For the molecule `C[C@@H](O)CNc1nnc(-c2ccc(C(F)(F)F)cc2C(F)(F)F)cc1C1CC1` [Example 28], the IC50 was found to be 200 nM. In turn, `CC(=O)O[C@H](C)CNc1cc(C)c(-c2ccc(C(F)(F)F)cc2O)nn1` [Example 34] showed a concentration for half-maximal inhibition (IC50) of 21 nM. `Cc1cc(-c2ccc(C(F)(F)F)cc2C(F)(F)F)nnc1NC[C@@H](C)O` [Example 6, (2R)-1-({6-[2,4-bis(trifluoromethyl)phenyl]-4-methylpyridazin-3-yl}amino)propan-2-ol] registered an IC50 of 90 nM. Regarding `C[C@@H](O)CNc1cc(C2CC2)c(-c2ccc(C(F)(F)F)cc2C(F)(F)F)nn1` [Example 29], the IC50 is 460 nM. This IC50 is about 5.1-fold higher than that of the molecule before. The molecule `C[C@@H](O)CNc1nnc(-c2ccc(C(F)(F)F)cc2O)c(C2CC2)c1C1CC1` [Example 39] gave an IC50 of 750 nM. This IC50 is about 1.6-fold higher than that of the molecule before.

`COc1ccc(-c2cc(C)c(NC[C@@H](C)O)nn2)c(C2CC2)c1` [Example 22] displayed a half-inhibitory concentration (IC50) of 530 nM.

Molecule `C[C@@H](O)CNc1nnc(-c2ccc(C(F)(F)F)cc2C(F)(F)F)cc1C(=O)N1CCSCC1` [Example 44] displayed a concentration for half-maximal inhibition (IC50) of 570 nM.

Regarding `COc1ccc(-c2nnc(NC[C@@H](C)O)cc2C)c(C(F)(F)F)c1` [Example 59], half-maximal inhibition (IC50) was put at 750 nM.

The molecule `OCCCNc1nnc(-c2ccc(C(F)(F)F)cc2)cc1-c1ccco1` [Example 50] had a 50% inhibitory concentration (IC50) of 1100 nM. This IC50 and that of the molecule before are within 1.5-fold of each other. `C[C@@H]1COCCN1C(=O)c1cc(-c2ccc(C(F)(F)F)cc2C(F)(F)F)nnc1NC[C@@H](C)O` [Example 56]: it took 2500 nM to reach half-maximal inhibition (IC50). For `COc1ccc(-c2nnc(NC[C@@H](C)O)cc2C)c(O)c1` [Example 69] the value was 250 nM; for `CC(C)C(=O)NCCCCNc1ccc(-c2ccc(C(F)(F)F)cc2C(F)(F)F)nn1` [Example 47], 400 nM. For `C[C@@H](O)CNc1nnc(-c2ccc(C(F)(F)F)cc2C(F)(F)F)cc1OCCOCc1ccccc1` [Example 19], it took 610 nM to reach half-maximal inhibition (IC50).

Source of the values: patent publication US20230107277A1, “SUBSTITUTED PYRIDAZINE COMPOUND” (Astellas Pharma Inc., priority 2020, published 2023).
